{"source": "patent US11026963B2", "about": "“Senolytic compositions and uses thereof” (Rubedo Life Sciences, Inc., priority 2018, dated 2021)", "key": {"[1]": {"test_system": "Normal human fibroblasts (IMR90)", "assay": "Compound toxicity towards normal proliferative, senescent or quiescent fibroblasts (XTT cell viability assay)", "type": "cell-based", "details": "IC50 against normal, proliferating cells divided by IC50 versus senescent (doxorubicin-induced) cells, three days treatment", "procedure": "Normal human fibroblasts (IMR90) and patient-derived β-galactosidase (GLB1) or α-fucosidase (FUCA1) deficient cells were used to determine change in cell viability after exposure to compound. Cells were cultured with DMEM and 10% heat inactivated FBS under a controlled atmosphere of 5% carbon dioxide and 5% oxygen, […] and confirmed by the absence of senescence associated β-galactosidase (SA-β-Gal) staining and the capacity to re-enter the cell cycle. Senescence was induced by treatment with doxorubicin and confirmed by SA-β-Gal positive staining and the lack of DNA replication. Cells were treated with compound for three days. Cell viability was determined by mitochondrial dehydrogenase activity (XTT assay. Cayman Chemical) at ten concentrations of the tested compound. To generate dose-response curves, data was fitted to a four-parameter Hill function and the IC50 was determined at Y=0.5 viability. The senolytic index (S.I.) for each compound was determined by dividing the IC50 against normal, proliferating cells by the IC50 versus senescent cells. Senolytic index data is shown in Table 1 with compounds having S.I.<1 (−), S.I>1 (+), S.I.>5 (++) and S.I>10 (+++)."}, "[2]": {"test_system": "Mouse embryonic fibroblast cells (MEFs)", "assay": "Viability of proliferating or senescent mouse embryonic fibroblasts (DAPI/PI staining)", "type": "cell-based", "details": "4 days", "procedure": "Mouse embryonic fibroblast cells were incubated with 300 nM doxorubicin for 24 hrs to induce senescence. Cells were washed and after incubation in media for 7 days, senescence was confirmed by staining for SA-β-Gal (Itahana et al., Methods Mol. Biol. 371 (2007) 21-31) and lack of incorporation of 5-ethynyl-2′-deoxyuridine (EdU) (see Yu et al., J. Immunol. Methods 350 (2009) 29-35).\nProliferating or senescent MEFs were treated with increasing concentrations of either FURGal (101) or 5-fluorouridine (FUR) (102) for 4 days. Cells were washed and stained with 4′,6-diamidino-2-phenylindole (DAPI) and propidium iodide (PI) and the fraction of viable cells was assessed from the ratio of PI-positive nuclei over PI-negative nuclei."}, "[3]": {"test_system": "senescent C57BL/6 mouse hepatocytes", "assay": "Effect of compound (113) on doxorubicin-induced senescent hepatocytes after in vivo administration", "procedure": "Two groups of C57BL/6 mice (N=9/group) were injected intraperitoneally with doxorubicin (20 mg/kg) to induce hepatocellular senescence. 4 and 6 days later groups were injected i.p. with PBS or compound (113) (aka RBO-013) (2×20 mg/kg). A third group of animals served as controls. After an additional 2 days livers were removed and sectioned (30 μm) before staining for SA-β-Gal as previously described (FIGS. 4A and 4B). […] This senolytic effect was also corroborated by using quantitative PCR to detect mRNA levels of Cdkn2a (p16^INK4a) and IL-6 (N.B. Cdkn2a expression was exclusively detected in animals that received doxorubicin). Expression levels were reported relative to Actb as the reference gene."}}}
{"compound": "CC(C)c1cc(C(=O)N2Cc3ccc(CN4CCN(C)CC4)cc3C2)c(O)cc1O[C@@H]1O[C@H](CO)[C@H](O)[C@H](O)[C@H]1O", "note": "(single isomer, unassigned) [(46)]", "values": [{"measurement": "Senolytic Index (S.I.)", "setting": "[1]", "result": "− (S.I.<1 (−))"}]}
{"compound": "CCNC(=O)c1noc(-c2cc(C(C)C)c(O[C@@H]3O[C@H](CO)[C@H](O)[C@H](O)[C@H]3O)cc2O)c1-c1ccc(CN2CCOCC2)cc1", "note": "(single isomer, unassigned) [(48)]", "values": [{"measurement": "Senolytic Index (S.I.)", "setting": "[1]", "result": "+ (S.I>1 (+))"}]}
{"compound": "CCNC(=O)c1noc(-c2cc(C(C)C)c(O)cc2O[C@@H]2O[C@H](CO)[C@H](O)[C@H](O)[C@H]2O)c1-c1ccc(CN2CCOCC2)cc1", "note": "(single isomer, unassigned) [(49)]", "values": [{"measurement": "Senolytic Index (S.I.)", "setting": "[1]", "result": "+ (S.I>1 (+))"}]}
{"compound": "CC(C)c1cc(-c2n[nH]c(=O)n2-c2ccc3c(ccn3C)c2)c(O)cc1O[C@@H]1O[C@H](CO)[C@H](O)[C@H](O)[C@H]1O", "note": "(single isomer, unassigned) [(127)]", "values": [{"measurement": "Senolytic Index (S.I.)", "setting": "[1]", "result": "+ (S.I>1 (+))"}]}
{"compound": "CC(C)c1cc(-c2n[nH]c(=O)n2-c2ccc3c(ccn3C)c2)c(O[C@@H]2O[C@H](CO)[C@H](O)[C@H](O)[C@H]2O)cc1O", "note": "(single isomer, unassigned) [(128)]", "values": [{"measurement": "Senolytic Index (S.I.)", "setting": "[1]", "result": "− (S.I.<1 (−))"}]}
{"compound": "Cc1[nH]c2ccccc2c1CCNCc1ccc(/C=C/C(=O)NO[C@@H]2O[C@H](CO)[C@H](O)[C@H](O)[C@H]2O)cc1", "note": "[(26), (E)-3-(4-(((2-(2-Methyl-1H-indol-3-yl)ethyl)amino)methyl)phenyl)-N-(((2S,3R,4S,5R,6R)-3,4,5-trihydroxy-6-(hydroxymethyl)tetrahydro-2H-pyran-2-yl)oxy)acrylamide]", "values": [{"measurement": "Senolytic Index (S.I.)", "setting": "[1]", "result": "++ (S.I.>5 (++))"}]}
{"compound": "Cc1[nH]c2ccccc2c1CCNCc1ccc(/C=C/C(=O)NO[C@@H]2O[C@@H](C)[C@@H](O)[C@@H](O)[C@@H]2O)cc1", "note": "[(35), (E)-3-(4-(((2-(2-Methyl-1H-indol-3-yl)ethyl)amino)methyl)phenyl)-N-(((2S,3S,4R,5S,6S)-3,4,5-trihydroxy-6-methyltetrahydro-2H-pyran-2-yl)oxy)acrylamide]", "values": [{"measurement": "Senolytic Index (S.I.)", "setting": "[1]", "result": "+ (S.I>1 (+))"}]}
{"compound": "CC(C)c1cc(C(=O)N2Cc3ccc(CN4CCN(C)CC4)cc3C2)c(O[C@@H]2O[C@H](CO)[C@H](O)[C@H](O)[C@H]2O)cc1O", "note": "[(47)]", "values": [{"measurement": "Senolytic Index (S.I.)", "setting": "[1]", "result": "− (S.I.<1 (−))"}]}
{"compound": "O=c1[nH]c(=O)n([C@@H]2O[C@H](CO)[C@@H](O)[C@H]2O)cc1F", "note": "[(102), 5-fluorouridine, reference compound]", "values": [{"measurement": "toxicity towards senescent MEFs", "setting": "[2]; doxorubicin-induced senescent MEFs, FIG. 1B", "result": "equitoxic"}, {"measurement": "cell viability / toxicity towards proliferating cells", "setting": "[2]; proliferating MEFs, increasing concentrations (as high as 4 mM), FIG. 1A", "result": "dramatically reduces cell viability"}]}
{"compound": "Cn1cc(CNCC2CCN(c3ncc(C(=O)NO[C@@H]4O[C@H](CO)[C@H](O)[C@H](O)[C@H]4O)cn3)CC2)c2ccccc21", "note": "[(112), 2-(4-((((1-methyl-1H-indol-3-yl)methyl)amino)methyl)piperidin-1-yl)-N-(((2S,3R,4S,5R,6R)-3,4,5-trihydroxy-6-(hydroxymethyl)tetrahydro-2H-pyran-2-yl)oxy)pyrimidine-5-carboxamide]", "values": [{"measurement": "Senolytic Index (S.I.)", "setting": "[1]", "result": "+ (S.I>1 (+))"}]}
{"compound": "CC(=O)OC[C@H]1O[C@@H](ONC(=O)/C=C/c2ccc(CNCCc3c(C)[nH]c4ccccc34)cc2)[C@H](OC(C)=O)[C@@H](OC(C)=O)[C@H]1OC(C)=O", "note": "[(113), (2R,3S,4S,5R,6S)-2-(Acetoxymethyl)-6-(((E)-3-(4-(((2-(2-methyl-1H-indol-3yl)ethyl)amino)methyl)phenyl)acrylamido)oxy)tetrahydro-2H-pyran-3,4,5-triyl Triacetate]", "values": [{"measurement": "Senolytic Index (S.I.)", "setting": "[1]", "result": "+++ (S.I>10 (+++))"}, {"measurement": "senescent hepatocytes (as visualized by SA-β-Gal staining)", "setting": "[3]; doxorubicin 20 mg/kg i.p., 2×20 mg/kg i.p. 4 and 6 days later, livers after additional 2 days, FIG. 4C", "result": "reduction"}, {"measurement": "Cdkn2a (p16INK4a) gene expression in liver", "setting": "[3]; quantitative PCR, relative to Actb, doxorubicin 20 mg/kg, 2×20 mg/kg i.p., FIG. 4D", "result": "significant reduction"}, {"measurement": "IL-6 gene expression in liver", "setting": "[3]; quantitative PCR, relative to Actb, doxorubicin 20 mg/kg, 2×20 mg/kg i.p., FIG. 4E", "result": "significant reduction"}]}
{"compound": "CC(=O)OC[C@H]1O[C@@H](ONC(=O)c2cnc(N3CCC(CNCc4cn(C)c5ccccc45)CC3)nc2)[C@H](OC(C)=O)[C@@H](OC(C)=O)[C@H]1OC(C)=O", "note": "[(114), (2R,3S,4S,5R,6S)-2-(Acetoxymethyl)-6-((2-(4-((((1-methyl-1H-indol-3-yl)methyl)amino)methyl)piperidin-1-yl)pyrimidine-5-carboxamido)oxy)tetrahydro-2H-pyran-3,4,5-triyl Triacetate]", "values": [{"measurement": "Senolytic Index (S.I.)", "setting": "[1]", "result": "+ (S.I>1 (+))"}]}
{"compound": "C[C@@H]1O[C@@H](ONC(=O)c2cnc(N3CCC(CNCc4cn(C)c5ccccc45)CC3)nc2)[C@@H](O)[C@H](O)[C@@H]1O", "note": "[(120), 2-(4-((((l-Methyl-1H-indol-3-yl)methyl)amino)methyl)piperidin-1-yl)-N-(((2S,3S,4R,5S,6S)-3,4,5-trihydroxy-6-methyltetrahydro-2H-pyran-2-yl)oxy)pyrimidine-5-carboxamide]", "values": [{"measurement": "Senolytic Index (S.I.)", "setting": "[1]", "result": "+ (S.I>1 (+))"}]}
{"compound": "CCC(=O)O[C@H]1[C@H](OC(=O)CC)[C@H](ONC(=O)/C=C/c2ccc(CNCCc3c(C)[nH]c4ccccc34)cc2)O[C@@H](C)[C@H]1OC(=O)CC", "note": "[(121), (2S,3R,4R,5S,6S)-2-Methyl-6-(((E)-3-(4-(((2-(2-methyl-1H-indol-3-yl)ethyl)amino)methyl)phenyl)acrylamido)oxy)tetrahydro-2H-pyran-3,4,5-triyl Tripropionate]", "values": [{"measurement": "Senolytic Index (S.I.)", "setting": "[1]", "result": "+++ (S.I>10 (+++))"}]}
{"compound": "Cc1[nH]c2ccccc2c1CCNCc1ccc(/C=C/C(=O)NO[C@@H]2O[C@@H](C)[C@@H](OC(=O)C(C)C)[C@@H](OC(=O)C(C)C)[C@@H]2OC(=O)C(C)C)cc1", "note": "[(122), (2S,3R,4R,5S,6S)-2-Methyl-6-(((E)-3-(4-(((2-(2-methyl-1H-indol-3-yl)ethyl)amino)methyl)phenyl)acrylamido)oxy)tetrahydro-2H-pyran-3,4,5-triyl tris(2-methylpropanoate)]", "values": [{"measurement": "Senolytic Index (S.I.)", "setting": "[1]", "result": "+ (S.I>1 (+))"}]}
{"compound": "COc1ccc(-c2nc(N3CCOCC3)c3sc(CN(C)c4ncc(C(=O)NO[C@@H]5O[C@H](COC(C)=O)[C@H](OC(C)=O)[C@H](OC(C)=O)[C@H]5OC(C)=O)cn4)cc3n2)cn1", "note": "[(123), (2R,3S,4S,5R,6S)-2-(Acetoxymethyl)-6-((2-(((2-(6-methoxypyridin-3-yl)-4-morpholinothieno[3,2-d]pyrimidin-6-yl)methyl)(methyl)amino)pyrimidine-5-carboxamido)oxy)tetrahydro-2H-pyran-3,4,5-triyl Triacetate]", "values": [{"measurement": "Senolytic Index (S.I.)", "setting": "[1]", "result": "+ (S.I>1 (+))"}]}
{"compound": "COc1ccc(-c2nc(N3CCOCC3)c3sc(CN(C)c4ncc(C(=O)NO[C@@H]5O[C@H](CO)[C@H](O)[C@H](O)[C@H]5O)cn4)cc3n2)cn1", "note": "[(124), 2-(((2-(6-Methoxypyridin-3-yl)-4-morpholinothieno[3,2-d]pyrimidin-6-yl)methyl)(methyl)amino)-N-(((2S,3R,4S,5R,6R)-3,4,5-trihydroxy-6-(hydroxymethyl)tetrahydro-2H-pyran-2-yl)oxy)pyrimidine-5-carboxamide]", "values": [{"measurement": "Senolytic Index (S.I.)", "setting": "[1]", "result": "− (S.I.<1 (−))"}]}
{"compound": "COc1ccc(-c2nc(N3CCOCC3)c3sc(CN(C)c4ncc(C(=O)NO[C@@H]5O[C@@H](C)[C@@H](OC(C)=O)[C@@H](OC(C)=O)[C@@H]5OC(C)=O)cn4)cc3n2)cn1", "note": "[(125), (2S,3S,4R,5R,6S)-2-((2-(((2-(6-Methoxypyridin-3-yl)-4-morpholinothieno[3,2-d]pyrimidin-6-yl)methyl)(methyl)amino)pyrimidine-5-carboxamido)oxy)-6-methyltetrahydro-2H-pyran-3,4,5-triyl Triacetate]", "values": [{"measurement": "Senolytic Index (S.I.)", "setting": "[1]", "result": "++ (S.I.>5 (++))"}]}
{"compound": "COc1ccc(-c2nc(N3CCOCC3)c3sc(CN(C)c4ncc(C(=O)NO[C@@H]5O[C@@H](C)[C@@H](O)[C@@H](O)[C@@H]5O)cn4)cc3n2)cn1", "note": "[(126), 2-(((2-(6-methoxypyridin-3-yl)-4-morpholinothieno[3,2-d]pyrimidin-6-yl)methyl)(methyl)amino)-N-(((2S,3S,4R,5S,6S)-3,4,5-trihydroxy-6-methyltetrahydro-2H-pyran-2-yl)oxy)pyrimidine-5-carboxamide]", "values": [{"measurement": "Senolytic Index (S.I.)", "setting": "[1]", "result": "− (S.I.<1 (−))"}]}
{"compound": "CC(=O)O[C@H]1[C@H](OC(C)=O)[C@H](ONC(=O)c2cnc(N3CCC(CNCc4cn(C)c5ccccc45)CC3)nc2)O[C@@H](C)[C@H]1OC(C)=O", "note": "[Compound (115), (2S,3R,4R,5S,6S)-2-Methyl-6-((2-(4-((((1-methyl-1H-indol-3-yl)methyl)amino)methyl)piperidin-1-yl)pyrimidine-5-carboxamido)oxy)tetrahydro-2H-pyran-3,4,5-triyl Triacetate]", "values": [{"measurement": "Senolytic Index (S.I.)", "setting": "[1]", "result": "+++ (S.I>10 (+++))"}]}
